Drawing on patent US11053213B2, “Pharmaceutical compounds” (ALMAC DISCOVERY LIMITED, priority 2016, dated 2021), this text covers IC50 for 27 compounds.

Broadly, the IC50 is the midpoint of a concentration-inhibition curve.

In the assay the target is USP19 (Homo sapiens (Human), UniProt O94966). Nature of the assay: USP19 activity assay (fluorescence polarisation, Ubiquitin-Lys-TAMRA substrate). The format is biochemical. The following applies: full-length USP19 2.5 nM, 30 min pre-incubation, Ub substrate 500 nM; average of at least two duplicate experiments. For orientation: Fluorescence polarisation rises when a labelled molecule tumbles more slowly, as on binding a larger partner.
Chain of USP19 (O94966 whole entry): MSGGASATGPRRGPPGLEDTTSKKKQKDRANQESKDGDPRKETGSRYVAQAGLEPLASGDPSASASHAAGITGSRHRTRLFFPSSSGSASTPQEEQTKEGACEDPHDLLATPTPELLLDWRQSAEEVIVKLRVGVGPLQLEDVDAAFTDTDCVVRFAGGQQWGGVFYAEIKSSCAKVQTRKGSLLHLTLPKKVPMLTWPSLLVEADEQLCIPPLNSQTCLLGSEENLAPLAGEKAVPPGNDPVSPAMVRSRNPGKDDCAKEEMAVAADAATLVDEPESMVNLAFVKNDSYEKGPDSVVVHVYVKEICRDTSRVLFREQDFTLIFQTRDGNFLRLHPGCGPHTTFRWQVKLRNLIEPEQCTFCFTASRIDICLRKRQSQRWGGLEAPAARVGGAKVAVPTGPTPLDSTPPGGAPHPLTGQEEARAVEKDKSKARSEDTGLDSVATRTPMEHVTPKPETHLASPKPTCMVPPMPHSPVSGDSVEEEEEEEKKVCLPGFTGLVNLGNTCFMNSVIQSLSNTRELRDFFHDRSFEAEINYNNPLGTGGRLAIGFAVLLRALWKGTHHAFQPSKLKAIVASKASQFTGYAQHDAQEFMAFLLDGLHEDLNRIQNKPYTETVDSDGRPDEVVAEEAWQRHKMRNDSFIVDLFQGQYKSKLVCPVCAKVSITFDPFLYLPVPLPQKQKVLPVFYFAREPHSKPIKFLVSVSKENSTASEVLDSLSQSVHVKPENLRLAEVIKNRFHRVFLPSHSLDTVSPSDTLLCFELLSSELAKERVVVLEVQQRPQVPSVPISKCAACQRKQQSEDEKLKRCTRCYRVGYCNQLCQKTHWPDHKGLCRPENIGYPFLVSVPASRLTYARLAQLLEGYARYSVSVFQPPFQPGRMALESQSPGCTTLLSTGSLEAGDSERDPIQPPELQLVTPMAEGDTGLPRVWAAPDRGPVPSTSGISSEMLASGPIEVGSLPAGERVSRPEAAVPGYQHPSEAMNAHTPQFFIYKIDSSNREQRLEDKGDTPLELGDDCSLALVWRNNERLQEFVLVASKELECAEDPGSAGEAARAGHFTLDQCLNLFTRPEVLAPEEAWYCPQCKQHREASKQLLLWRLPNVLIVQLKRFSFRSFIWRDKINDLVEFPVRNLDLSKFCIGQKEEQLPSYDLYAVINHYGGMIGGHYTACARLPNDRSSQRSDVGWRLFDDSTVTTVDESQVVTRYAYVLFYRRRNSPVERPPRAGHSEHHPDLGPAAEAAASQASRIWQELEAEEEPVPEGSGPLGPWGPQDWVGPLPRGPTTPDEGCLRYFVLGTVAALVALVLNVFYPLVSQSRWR
Turning to `O=C([C@@H]1C[C@@H]1c1ccccc1)N1CCC(O)(Cn2cnc(-c3ccccc3F)cc2=O)CC1` (racemic) [Example 41, rac-6-(2-Fluorophenyl)-3-((4-hydroxy-1-(cis-2-phenylcyclopropanecarbonyl)piperidin-4-yl)methyl)pyrimidin-4(3H)-one], the IC50 lay within 5 to 50 µM.
For the compound `C[C@H](CC1CCCCC1)C(=O)N1CC[C@@](O)(Cn2cc(C(=O)N(C)C)c(C3CC3)cc2=O)C(C)(C)C1` [Example 220, 1-(((S)-1-((R)-3-Cyclohexyl-2-methylpropanoyl)-4-hydroxy-3,3-dimethylpiperidin-4-yl)methyl)-4-cyclopropyl-N,N-dimethyl-6-oxo-1,6-dihydropyridine-3-carboxamide], the IC50 lay within 0.5 to 5 µM.
As to `C[C@H](CC1CCCCC1)C(=O)N1CCC(O)(Cn2cnc(-c3ccn[nH]3)cc2=O)C(C)(C)C1` (stereo partly drawn) [Example 133, 3-((1-((R)-3-Cyclohexyl-2-methylpropanoyl)-4-hydroxy-3,3-dimethylpiperidin-4-yl)methyl)-6-(1H-pyrazol-5-yl)pyrimidin-4(3H)-one], the IC50 lay in the range of 0.5 to 5 µM.
`CN(C)C(=O)c1cn(CC2(O)CCN(C(=O)c3csc(C(F)(F)F)n3)CC23CCCC3)c(=O)cc1-c1ccccc1` (stereo not drawn) [Example 246, 1-((10-Hydroxy-7-(2-(trifluoromethyl)thiazole-4-carbonyl)-7-azaspiro[4.5]decan-10-yl)methyl)-N,N-dimethyl-6-oxo-4-phenyl-1,6-dihydropyridine-3-carboxamide]: the IC50 was 5 to 50 µM.
The figure for `CC(Cc1ccccc1)C(=O)N1CCC(O)(Cn2cnc(-c3ccccc3F)cc2=O)CC1` (racemic) [Example 5, (R,S)-6-(2-Fluorophenyl)-3-((4-hydroxy-1-(2-methyl-3-phenylpropanoyl)piperidin-4-yl)methyl)pyrimidin-4(3H)-one] is 5 to 50 µM; for `Cc1nc(-c2ccccc2)cc(=O)n1CC1(O)CCN(C(=O)CCc2ccccc2)CC1` [Example 34, 3-((4-Hydroxy-1-(3-phenylpropanoyl)piperidin-4-yl)methyl)-2-methyl-6-phenylpyrimidin-4(3H)-one] it is 50 to 250 µM.
The figure for `C[C@H](CC1CCC1)C(=O)N1CCC(O)(Cn2cc(C(=O)N(C)C)c(-c3ccccc3)cc2=O)C(C)(C)C1` (stereo partly drawn) [Example 128, 1-((1-((R)-3-Cyclobutyl-2-methylpropanoyl)-4-hydroxy-3,3-dimethylpiperidin-4-yl)methyl)-N,N-dimethyl-6-oxo-4-phenyl-1,6-dihydropyridine-3-carboxamide] is 0.5 to 5 µM; for `C[C@H](CC(=O)N1CCC(O)(Cn2ccc(-c3ccccc3)cc2=O)CC1)c1ccccc1` [Example 27, (R)-1-((4-Hydroxy-1-(3-phenylbutanoyl)piperidin-4-yl)methyl)-4-phenylpyridin-2(1H)-one] it is 50 to 250 µM; for `CCOCCC(=O)N1CCC(O)(Cn2cc(C(=O)N(C)C)c(-c3ccccc3)cc2=O)C2(CCCC2)C1` (stereo not drawn) [Example 182, 1-((7-(3-Ethoxypropanoyl)-10-hydroxy-7-azaspiro[4.5]decan-10-yl)methyl)-N,N-dimethyl-6-oxo-4-phenyl-1,6-dihydropyridine-3-carboxamide] it is 5 to 50 µM.
The figure for `CC(CC(F)F)C(=O)N1CCC(O)(Cn2cc(C(=O)N(C)C)c(-c3ccccc3)cc2=O)C2(CCCC2)C1` (stereo not drawn) [Example 243, 1-((7-(4,4-Difluoro-2-methylbutanoyl)-10-hydroxy-7-azaspiro[4.5]decan-10-yl)methyl)-N,N-dimethyl-6-oxo-4-phenyl-1,6-dihydropyridine-3-carboxamide] is 5 to 50 µM; for `C[C@H](CC1CCCCC1)C(=O)N1CCC(O)(Cn2cnc(-c3ccccc3F)cc2=O)CC1` [Example 39, (R)-3-((1-(3-Cyclohexyl-2-methylpropanoyl)-4-hydroxypiperidin-4-yl)methyl)-6-(2-fluorophenyl)pyrimidin-4(3H)-one] it is 5 to 50 µM; for `C[C@H](CC1CCCCC1)C(=O)N1CC[C@@](O)(Cn2cc(C(=O)N3CCC(O)CC3)c(-c3ccccc3)cc2=O)C(C)(C)C1` [Example 228, 1-(((S)-1-((R)-3-Cyclohexyl-2-methylpropanoyl)-4-hydroxy-3,3-dimethylpiperidin-4-yl)methyl)-5-(4-hydroxypiperidine-1-carbonyl)-4-phenylpyridin-2(1H)-one] it is less than 0.5 µM.
Turning to `C[C@H](CC1CCCCC1)C(=O)N1CCC(O)(Cn2cc(C(=O)N3CCCCC3)c(-c3ccccc3)cc2=O)CC1` [Example 36, (R)-1-((1-(3-Cyclohexyl-2-methylpropanoyl)-4-hydroxypiperidin-4-yl)methyl)-4-phenyl-5-(piperidine-1-carbonyl)pyridin-2(1H)-one], the IC50 lay in the range of 0.5 to 5 µM.
The figure for `C[C@H](CC1CCCCC1)C(=O)N1CCC(O)(Cn2cnc(-c3ccccc3CO)cc2=O)C(C)(C)C1` (stereo partly drawn) [Example 137, 3-((1-((R)-3-Cyclohexyl-2-methylpropanoyl)-4-hydroxy-3,3-dimethylpiperidin-4-yl)methyl)-6-(2-(hydroxymethyl)phenyl)pyrimidin-4(3H)-one] is 0.5 to 5 µM.
Regarding `C[C@H](CC(F)(F)F)C(=O)N1CC[C@@](O)(Cn2cc(C(=O)N3CCOCC3)c(-c3ccccc3)cc2=O)C2(CCCC2)C1` [Example 250, 1-(((S)-10-Hydroxy-7-((R)-4,4,4-trifluoro-2-methylbutanoyl)-7-azaspiro[4.5]decan-10-yl)methyl)-5-(morpholine-4-carbonyl)-4-phenylpyridin-2(1H)-one], the IC50 is less than 0.5 µM.
Turning to `C[C@H](CC1CCCCC1)C(=O)N1CCC(O)(Cn2cnc(-c3ccsc3)cc2=O)C(C)(C)C1` (stereo partly drawn) [Example 135, 3-((1-((R)-3-Cyclohexyl-2-methylpropanoyl)-4-hydroxy-3,3-dimethylpiperidin-4-yl)methyl)-6-(thiophen-3-yl)pyrimidin-4(3H)-one], the IC50 is less than 0.5 µM.
With `CC(C)C(CC1CCCCC1)C(=O)N1CCC(O)(Cn2cnc(-c3ccccc3F)cc2=O)C(C)(C)C1` (stereo not drawn) [Example 25, 3-((1-(2-(Cyclohexylmethyl)-3-methylbutanoyl)-4-hydroxy-3,3-dimethylpiperidin-4-yl)methyl)-6-(2-fluorophenyl)pyrimidin-4(3H)-one], the IC50 fell in the range of 0.5 to 5 µM.
For `C[C@H](CC1CCC1)C(=O)N1CC[C@@](O)(Cn2cc(C(=O)N3CCNCC3)c(-c3ccccc3F)cc2=O)C(C)(C)C1` [Example 236, 1-(((S)-1-((R)-3-Cyclobutyl-2-methylpropanoyl)-4-hydroxy-3,3-dimethylpiperidin-4-yl)methyl)-4-(2-fluorophenyl)-5-(piperazine-1-carbonyl)pyridin-2(1H)-one], the IC50 was less than 0.5 µM.
The figure for `C[C@H](CC1CCCCC1)C(=O)N1CCC(O)(Cn2cc(C(=O)N(C)C)c(-c3ccsc3)cc2=O)C2(CCCC2)C1` (stereo partly drawn) [Example 155, 1-((7-((R)-3-Cyclohexyl-2-methylpropanoyl)-10-hydroxy-7-azaspiro[4.5]decan-10-yl)methyl)-N,N-dimethyl-6-oxo-4-(thiophen-3-yl)-1,6-dihydropyridine-3-carboxamide] is less than 0.5 µM.
The figure for `C[C@H](CC(=O)N1CCC(O)(Cn2cc(-c3ccnn3C)c(-c3ccccc3)cc2=O)CC1)c1ccccc1` [Example 9, (R)-1-((4-Hydroxy-1-(3-phenylbutanoyl)piperidin-4-yl)methyl)-5-(1-methyl-1H-pyrazol-5-yl)-4-phenylpyridin-2(1H)-one] is 5 to 50 µM.
The figure for `C[C@H](CC1CCCCC1)C(=O)N1CCC(O)(Cn2cnc(-c3ccccc3)cc2=O)C(C)(C)C1` (mixture of isomers) [Example 50, 3-(((R)-1-((R)-3-Cyclohexyl-2-methylpropanoyl)-4-hydroxy-3,3-dimethylpiperidin-4-yl)methyl)-6-phenylpyrimidin-4(3H)-one and 3-(((S)-1-((R)-3-Cyclohexyl-2-methylpropanoyl)-4-hydroxy-3,3-dimethylpiperidin-4-yl)methyl)-6-phenylpyrimidin-4(3H)-one] is less than 0.5 µM; for `CC(CN1CCOCC1)C(=O)N1CCC(O)(Cn2cc(C(=O)N(C)C)c(-c3ccccc3)cc2=O)C2(CCCC2)C1` (stereo not drawn) [Example 163, 1-((10-Hydroxy-7-(2-methyl-3-morpholinopropanoyl)-7-azaspiro[4.5]decan-10-yl)methyl)-N,N-dimethyl-6-oxo-4-phenyl-1,6-dihydropyridine-3-carboxamide] it is 5 to 50 µM; for `CCC(CC1CCCCC1)C(=O)N1CCC(O)(Cn2cnc(-c3ccccc3F)cc2=O)CC1` (stereo not drawn) [Example 40, 3-((1-(2-(Cyclohexylmethyl)butanoyl)-4-hydroxypiperidin-4-yl)methyl)-6-(2-fluorophenyl)pyrimidin-4(3H)-one] it is 5 to 50 µM.
On to `Cc1ccc(-c2cc(=O)n(CC3(O)CCN(C(=O)C[C@@H](C)c4ccccc4)CC3)cc2C(=O)N(C)C(C)C)cc1` [Example 96, (R)-1-((4-Hydroxy-1-(3-phenylbutanoyl)piperidin-4-yl)methyl)-N-isopropyl-N-methyl-6-oxo-4-(p-tolyl)-1,6-dihydropyridine-3-carboxamide], for which the IC50 lay within 5 to 50 µM.
The figure for `C[C@H](CC(=O)N1CCC(O)(Cn2cc(C(=O)N(C)C)c(-c3ccccc3)cc2=O)C2(CCCC2)C1)c1ccccc1` (stereo partly drawn) [Example 185, 1-((10-Hydroxy-7-((R)-3-phenylbutanoyl)-7-azaspiro[4.5]decan-10-yl)methyl)-N,N-dimethyl-6-oxo-4-phenyl-1,6-dihydropyridine-3-carboxamide] is 0.5 to 5 µM; for `CN(C)C(=O)c1cn(CC2(O)CCN(C(=O)c3c[nH]c4ccccc34)CC23CCCC3)c(=O)cc1-c1ccccc1` (stereo not drawn) [Example 190, 1-((10-Hydroxy-7-(1H-indole-3-carbonyl)-7-azaspiro[4.5]decan-10-yl)methyl)-N,N-dimethyl-6-oxo-4-phenyl-1,6-dihydropyridine-3-carboxamide] it is 50 to 250 µM.
The figure for `CC(C)C(=O)N1CCC(O)(Cn2cc(C(=O)N(C)C)c(-c3ccccc3)cc2=O)C2(CCCC2)C1` (stereo not drawn) [Example 147, 1-((10-Hydroxy-7-isobutyryl-7-azaspiro[4.5]decan-10-yl)methyl)-N,N-dimethyl-6-oxo-4-phenyl-1,6-dihydropyridine-3-carboxamide] is 50 to 250 µM.
